What was measured:
[1] = system: human primary cell-based systems; experiment: BioMAP Diversity PLUS panel, phenotypic profiling; details: tested at 6.7 and/or 20 μM; 24 to 72 hours
Procedure: Anti-inflammatory phenotypic profiling was conducted across 12 human primary cell-based systems as part of DiscoverX's BioMAP Diversity Plus program. These systems are designed to model complex human tissue and disease biology of the vasculature, skin, lung, and inflammatory tissues. Quantitative measurements of biomarker activities across this broad panel were used to assess each biochemical's anti-inflammatory activity at four concentrations ([…] and 2.2, 6.7 and 20 μM). […] Protein-based biomarkers from activated cell systems were measured and compared with controls.
(§1) The Diversity PLUS panel allows test agent characterization in an unbiased way across a broad set of systems modeling various human disease states. These systems are designed to model complex human tissue and disease biology of the vasculature, skin, lung, and inflammatory tissues. Quantitative measurements of 148 biomarker activities across this broad panel, along with comparative analysis of biological activities from known bioactive agents, were used to predict and compare the efficacy and function of each selected compound at selected concentrations (6.7 and/or 20 μM).
(§2) BioMAP systems are constructed with one or more primary cell types from healthy human donors, with stimuli (such as cytokines or growth factors) added to capture relevant signaling networks that naturally occur in human tissue or pathological conditions. Vascular biology is modeled in both a Th1 (3C system) and a Th2 (4H system) inflammatory environment, as well as in a Th1 inflammatory state specific to arterial smooth muscle cells (CASM3C system). Additional systems recapitulate aspects of the systemic immune response including monocyte-driven Th1 inflammation (LPS system) or T cell stimulation (SAg system), chronic Th1 inflammation driven by macrophage activation (lMphg system) and the T cell-dependent activation of B cells that occurs in germinal centers (BT system). The BE3C system (Th1) and the BF4T system (Th2) represent airway inflammation of the lung, while the MyoF system models myofibroblast-lung tissue remodeling. Lastly, skin biology is addressed in the KF3CT system modeling Th1 cutaneous inflammation and the HDF3CGF system modeling wound healing.
(§3) Each test agent generates a signature BioMAP profile that is created from the changes in protein biomarker readouts within individual system environments. Biomarker readouts (7-17 per system) are selected for therapeutic and biological relevance, are predictive for disease outcomes or specific drug effects and are validated using agents with known mechanism of action (MoA). Each readout is measured quantitatively by immune-based methods that detect protein (e.g., ELISA) or functional assays that measure proliferation and viability. BioMAP readouts are diverse and include cell surface receptors, cytokines, chemokines, matrix molecules and enzymes. In total, the Diversity PLUS panel contains 148 biomarker readouts that capture biological changes that occur within the physiological context of the particular BioMAP system.
(§4) Activated BioMAP systems were incubated with each compound for 24 to 72 hours. Protein-based biomarkers from activated cell systems were measured and compared with non-treated control systems.

[2] = system: 3C system (Th1 vascular biology); experiment: BioMAP 3C system; assay type: cell-based, human; details: at the compound's active concentration
From the text: as §3, with “The Diversity PLUS panel allows test agent characterization in an unbiased way across a broad set of systems modeling various human disease states. These systems are designed to model complex human tissue and disease biology of the vasculature, skin, lung, and inflammatory tissues. […] BioMAP systems are constructed with one or more primary cell types from healthy human donors, with stimuli (such as cytokines or growth factors) added to capture relevant signaling networks that naturally occur in human tissue or pathological conditions. […] Each test” for “Each test”, “BioMAP system. […]” for “BioMAP system.”

[3] = system: 4H: Venular endothelial cells (IL-4, histamine); experiment: BioMAP 4H system; assay type: cell-based, human; details: at the compound's active concentration
From the text: as §1
BioMAP systems are constructed with one or more primary cell types from healthy human donors, with stimuli (such as cytokines or growth factors) added to capture relevant signaling networks that naturally occur in human tissue or pathological conditions. Vascular biology is modeled in both a Th1 (3C system) and a Th2 (4H system) inflammatory environment, as well as in a Th1 inflammatory state specific to arterial smooth muscle cells (CASM3C system). […]
as §3, with “system. […]” for “system.”
as §4

[4] = system: BE3C: Bronchial epithelial cells (IL-1β, IFNγ, TNFα); experiment: BioMAP BE3C system; assay type: cell-based, human; details: at the compound's active concentration
From the text: The Diversity PLUS panel allows test agent characterization in an unbiased way across a broad set of systems modeling various human disease states. These systems are designed to model complex human tissue and disease biology of the vasculature, skin, lung, and inflammatory tissues.
as §2
as §3, with “enzymes.” for “enzymes. In total, the Diversity PLUS panel contains 148 biomarker readouts that capture biological changes that occur within the physiological context of the particular BioMAP system.”
as §4

Structure (SMILES): O=C(O)CNC(=O)c1ccccc1 [hippurate]
- Active concentrations [1]: 6.7 to 20 µM
- Tissue factor, log10 reduction vs nontreated controls [2]: −0.10 log10
- P-selectin, log10 reduction vs nontreated controls [3]: −0.10 log10
- MMP-1, log10 reduction vs nontreated controls [4]: −0.14 log10
